# Results: patent US20080193913A1, “Diluent, methods of manufacture and use” (Millipore Corporation, priority 2002, published 2008)
# Assay: Non-specific drug binding (NSB) to 96-well plates, drug in phosphate buffer
# Format: physicochemical
# Conditions: time course study on PP and PTFE plates using LC-MS (data not shown)
# Procedure: The drug NSB (10 nM drug in phosphate buffer) to other 96-well plates made from different plastics was also tested.
compound,measurement,value
CC(=O)O[C@H]1C(=O)[C@@]2(C)[C@H]([C@H](OC(=O)c3ccccc3)[C@]3(O)C[C@H](OC(=O)[C@H](O)[C@@H](NC(=O)c4ccccc4)c4ccccc4)C(C)=C1C3(C)C)[C@]1(OC(C)=O)CO[C@@H]1C[C@@H]2O [taxol],"drug NSB, dependence on plate material",independent of plate material
C[C@]12CC[C@H]3[C@@H](CCC4=CC(=O)CC[C@@]43C)[C@@H]1CC[C@@H]2O [testosterone],"drug NSB, dependence on plate material",independent of plate material
